Laboratory results taken from US20230295157A1, “3-(1H-IMIDAZOL-2-YL)-2,3,8,8A-TETRAHYDROINDOLIZIN-5(1H)-ONE DERIVATIVES USEFUL AS FACTOR XIA INHIBITORS” (JANSSEN PHARMACEUTICA NV, priority 2020, published 2023).

Legend:
human plasma kallikrein = human plasma kallikrein (Homo sapiens (Human), UniProt P03952); experiment: Kallikrein inhibition assay (FLINT) utilizing a quenched AMC peptide substrate; format: biochemical; settings: 30 min preincubation, kinetic reads over 30 min, Z-Gly-Pro-Arg-AMC substrate 50 μM; read-out: Kallikrein Kin Inh IC50
Sequence of human plasma kallikrein (P03952 391-638): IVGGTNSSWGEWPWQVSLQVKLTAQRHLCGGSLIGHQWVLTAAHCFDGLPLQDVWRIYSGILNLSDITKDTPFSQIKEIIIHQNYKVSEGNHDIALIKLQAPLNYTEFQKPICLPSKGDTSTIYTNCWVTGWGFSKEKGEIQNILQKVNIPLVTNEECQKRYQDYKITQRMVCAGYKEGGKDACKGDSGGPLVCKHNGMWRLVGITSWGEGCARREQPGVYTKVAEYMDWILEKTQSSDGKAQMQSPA
Sequence of human plasma kallikrein (P03952 20-390 partner): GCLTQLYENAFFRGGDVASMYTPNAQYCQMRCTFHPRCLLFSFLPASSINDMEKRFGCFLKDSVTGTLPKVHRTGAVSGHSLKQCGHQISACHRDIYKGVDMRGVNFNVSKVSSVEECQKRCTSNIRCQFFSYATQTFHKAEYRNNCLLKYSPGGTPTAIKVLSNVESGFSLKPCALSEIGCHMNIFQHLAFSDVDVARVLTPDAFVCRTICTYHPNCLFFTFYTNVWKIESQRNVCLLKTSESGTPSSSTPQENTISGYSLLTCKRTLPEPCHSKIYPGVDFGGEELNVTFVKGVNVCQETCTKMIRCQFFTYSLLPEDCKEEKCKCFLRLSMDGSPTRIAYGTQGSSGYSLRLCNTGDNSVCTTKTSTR
Procedure: Biological Example 2: Kallikrein Inhibition Assay Utilizing a Quenched AMC Peptide Substrate A fluorescence intensity (FLINT) based assay was used to monitor inhibition of human plasma kallikrein.
The Kallikrein FLINT assay was used with the following Z-Gly-Pro-Arg-AMC assay buffer: 50 mM Tris, pH 7.5, 100 mM NaCl, 5 mM CaCl2), 0.1 mg/mL BSA, 0.03% CHAPS. Assay buffer was prepared by mixing all ingredients fresh. 2×Z-Gly-Pro-Arg-AMC peptide substrate was prepared by diluting 10 mM stock into 1×assay buffer for a 100 μM working concentration (50 μM final concentration). The 2×kallikrein stock solution was prepared by diluting 14.76 μM stock in 1×assay buffer for a 4 nM working stock solution (2 nM final concentration).
Test compound(s) were run in an 11-point, 3-fold serial dilution with a final top compound concentration of 1 μM. Final DMSO in assay was 2%. Plasma kallikrein was pre-incubated for 30-minute with compound and then 50 μM substrate was added to initiate the reaction. The assay was run with kinetic (KIN) reads at 5 min intervals over 30 minutes. […] More specifically, the assay was run as follows: • 100 nL of 0.1 mM test compound was dispensed into black 384-well non-binding Greiner BioOne 784900 plate for 1 μM final concentration; • 5 μL of 1×assay buffer was dispensed to columns 24 (low control) and 5 μL 2×human kallikrein enzyme solution was dispensed to columns 1-23 (column 23 high control); • the plate was centrifuged with a “cover” plate at 500 rpm for 1 min • the plate was pre-incubated for 30 minutes at room temperature with plate covered; • 5 μL of 2×Z-Gly-Pro-Arg-AMC peptide substrate was dispensed into the entire plate, columns 1-24; • the plate was centrifuged with a “cover” plate at 500 rpm for 1 min; • the plate was read monitoring fluorescence intensity on the BMG PHERAStar at room temperature, using fluorescence module 340 nm/440 nm.
(§1) Percent inhibition (IC50) curves were generated per compound tested, and data was analyzed using a 4-parameter logistic fit using GeneData Screener. The relative fluorescence unit (RFU) values were normalized to percent inhibition using the following equation:
% inhibition=((HC-LC)−(compound-LC)\(HC-LC))*100 where LC—low control=mean signal of human kallikrein enzyme or 100% inhibition of human kallikrein enzyme; HC—high control=mean signal of Factor XIa+Z-Gly-Pro-Arg-AMC peptide substrate with DMSO only.
(§2) An 11-point dose response curve for the test compound(s) was generated using GENDATA to determine IC50 value based on the following equation:
Y=Bottom+(Top-Bottom)/(1+10^((logIC50−X)*HillSlope)) where Y is the % inhibition in the presence of X inhibitor concentration, Top=high control=mean signal of human kallikrein enzyme+Z-Gly-Pro-Arg-AMC peptide substrate with DMSO only; Bottom=low control−mean signal of no human kallikrein enzyme or 100% inhibition of human kallikrein enzyme; HillSlope—Hill coefficient; and IC50=concentration of compound with 50% inhibition in relation to top/high control.

Factor XIa = Factor XIa (Homo sapiens (Human), UniProt P03951); experiment: Factor XIa inhibition assay (FLINT) utilizing a fluorophore-quencher pair peptide substrate; format: biochemical; settings: 30 min preincubation, kinetic reads over 30 min, 5Fam-KLTRAETV-K5Tamra substrate 15 μM; read-out: FXIa Kin Inh IC50
Sequence of Factor XIa (P03951 388-625): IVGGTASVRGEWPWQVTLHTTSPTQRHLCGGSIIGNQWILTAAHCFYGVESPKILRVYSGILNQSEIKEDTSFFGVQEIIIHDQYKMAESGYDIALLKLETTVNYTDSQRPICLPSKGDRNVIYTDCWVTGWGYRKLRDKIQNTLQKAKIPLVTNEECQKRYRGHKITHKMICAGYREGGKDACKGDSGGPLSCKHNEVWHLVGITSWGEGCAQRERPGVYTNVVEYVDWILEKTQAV
Sequence of Factor XIa (P03951 19-387 partner): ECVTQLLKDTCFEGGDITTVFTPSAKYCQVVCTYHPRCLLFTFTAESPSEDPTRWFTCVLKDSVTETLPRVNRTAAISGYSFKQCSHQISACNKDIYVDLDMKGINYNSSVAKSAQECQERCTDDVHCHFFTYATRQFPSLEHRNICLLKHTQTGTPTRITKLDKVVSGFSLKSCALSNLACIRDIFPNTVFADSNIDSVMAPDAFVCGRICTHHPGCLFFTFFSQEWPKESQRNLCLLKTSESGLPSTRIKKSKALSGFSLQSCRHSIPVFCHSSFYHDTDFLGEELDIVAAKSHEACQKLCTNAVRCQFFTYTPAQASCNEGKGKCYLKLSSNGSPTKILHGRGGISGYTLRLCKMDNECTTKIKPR
From the text: Biological Example 1: Factor XIa Inhibition Assay Utilizing a Fluorophore-Quencher Pair Peptide Substrate
A fluorescence intensity (FLINT) based assay was used to monitor inhibition of Factor XIa. The peptide substrate, 5Fam-[…]-K5Tamra (purchased from New England Peptide) was chosen based on the FXI sequence. Conversion of zymogen […]. The custom peptide used in this assay was based on the Arg146 cleavage site of FXI. The peptide substrate was designed with a fluorophore-quencher pair, where the fluorescence is quenched until FXIa cleaves the 8-mer peptide after the Arg residue.
The Factor XIa FLINT assay was used with the following 5Fam-[…]-K5Tamra assay buffer: 50 mM Tris, pH 7.5, 100 mM NaCl, 5 mM CaCl2), 0.1 mg/mL BSA, 0.03% CHAPS. Assay buffer was prepared by mixing all ingredients fresh. 5Fam-[…]-K5Tamra peptide substrate was first prepared at 10 mM in 100% DMSO, then diluted to 3 mM in 100% DMSO. Assay buffer was then added directly to the 3 mM stock of substrate to prepare the 30 μM 2× working concentration (15 μM final concentration). The 2×Factor XIa stock solution was prepared by diluting 6.562 μM stock in 1×assay buffer for a 200 μM working stock solution (100 μM final concentration).
Test compound(s) were run in an 11-point, 3-fold serial dilution with a final top compound concentration of 100 nM. Final DMSO in assay was 2%. FXIa was preincubated with compound for 30-minutes and then substrate was added to initiate the reaction. The assay was run with kinetic (KIN) reads at 5 min intervals over 30 minutes. The time course was linear using 100 μM FXIa greater than 30 minutes. More specifically, the assay was run as follows: • 100 nL of 0.01 mM test compound was dispensed into black 384 well non-binding Greiner BioOne 784900 plate for 0.1 μM final concentration; • 5 μL of 1×assay buffer was dispensed to column 24 (low control) and 5 μL 2×Factor XIa solution was dispensed to columns 1-23 (column 23 high control); • the plate was centrifuged with a “cover” plate at 500 rpm for 1 min • the plate was pre-incubated for 30 minutes at room temperature with plate covered; • 5 μL of 2×5Fam-[…]-K5Tamra peptide substrate was dispensed into the entire plate, columns 1-24; • the plate was centrifuged with a “cover” plate at 500 rpm for 1 min; • the plate was read monitoring fluorescence intensity on the BMG PHERAStar at room temperature, using fluorescence module 485 nm/520 nm.
as §1
% inhibition=((HC-LC)−(compound−LC)/(HC-LC))*100
where LC—low control=mean signal of no Factor XIa or 100% inhibition of Factor XIa; HC—high control=mean signal of Factor XIa+5Fam-[…]-K5Tamra peptide substrate with DMSO only.
as §2
Y=Bottom+(Top-Bottom)/(1+10^((logIC50-X)*HillSlope))
where Y is the % inhibition in the presence of X inhibitor concentration, Top=high control=mean signal of Factor XIa+5Fam-[…] K5Tamra peptide substrate with DMSO only; Bottom=low control−mean signal of no Factor XIa or 100% inhibition of Factor XIa; HillSlope—Hill coefficient; and IC50=concentration of compound with 50% inhibition in relation to top/high control.
Representative compounds of the present invention were tested according to the procedure described in Biological Example 1 and Biological Example 2 above, with results as listed in Table 3, below.

IC50 (human plasma kallikrein) [nM] | IC50 (Factor XIa) [nM] | Compound
12.6 | 3.1 | O=C1Cc2ccc(-c3cnc([C@@H]4CCC5CC(c6c(-n7cnnn7)ccc(Cl)c6F)=CC(=O)N54)[nH]3)c(F)c2N1 (stereo partly drawn) [Example 383, 6-(2-((3S)-7-(3-chloro-2-fluoro-6-(1H-tetrazol-1-yl)phenyl)-5-oxo-1,2,3,5,8,8a-hexahydroindolizin-3-yl)-1H-imidazol-5-yl)-7-fluoroindolin-2-one]
17.5 | 12.9 | O=C1C=C(c2c(-n3cnnn3)ccc(Cl)c2F)C[C@@H]2CC[C@@H](c3ncc(-c4ccnc(C(F)(F)F)c4)[nH]3)N12 [Example 353, (3S,8aS)-7-(3-Chloro-2-fluoro-6-(1H-tetrazol-1-yl)phenyl)-3-(5-(2-(trifluoromethyl)pyridin-4-yl)-1H-imidazol-2-yl)-2,3,8,8a-tetrahydroindolizin-5(1H)-one]
9.4 | 1.2 | CC(C)(O)COc1nccc(-c2c[nH]c([C@@H]3CC[C@@H]4CC(c5c(-n6cnnn6)ccc(Cl)c5F)=CC(=O)N43)n2)c1F [Example 190]
9.3 | 1.9 | O=C1C=C(c2c(-n3cnnn3)ccc(Cl)c2F)C[C@H]2CC[C@@H](c3ncc(-c4ccnc(-c5ncc[nH]5)c4F)[nH]3)N12 [Example 2, (3S,8aR)-7-[3-Chloro-2-fluoro-6-(tetrazol-1-yl)phenyl]-3-[5-[3-fluoro-2-(1H-imidazol-2-yl)-4-pyridyl]-1H-imidazol-2-yl]-2,3,8,8a-tetrahydro-1H-indolizin-5-one]
7.4 | 0.5 | CNc1ccc(-c2cnc([C@@H]3CC[C@H]4CC(c5c(-n6cnnn6)ccc(Cl)c5F)=CC(=O)N43)[nH]2)c(F)n1 [Example 291, (3S,8aS)-7-(3-Chloro-2-fluoro-6-(1H-tetrazol-1-yl)phenyl)-3-(5-(2-fluoro-6-(methylamino)pyridin-3-yl)-1H-imidazol-2-yl)-2,3,8,8a-tetrahydroindolizin-5(1H)-one]
15.6 | 24.4 | Cn1cc(NC(=O)C2CC2)c(-c2c[nH]c([C@@H]3CC[C@H]4CC(c5c(-n6cnnn6)ccc(Cl)c5F)=CC(=O)N43)n2)n1 [Example 275, N-(3-(2-((3S,8aS)-7-(3-Chloro-2-fluoro-6-(1H-tetrazol-1-yl)phenyl)-5-oxo-1,2,3,5,8,8a-hexahydroindolizin-3-yl)-1H-imidazol-4-yl)-1-methyl-1H-pyrazol-4-yl)cyclopropanecarboxamide]
45.9 | 3.4 | CC1CC2CC(c3c(-n4cnnn4)ccc(Cl)c3F)=CC(=O)N2C1c1ncc(-c2ccc(N)nc2F)[nH]1 (stereo not drawn) [Example 328, 3-(5-(6-Amino-2-fluoropyridin-3-yl)-1H-imidazol-2-yl)-7-(3-chloro-2-fluoro-6-(1H-tetrazol-1-yl)phenyl)-2-methyl-2,3,8,8a-tetrahydroindolizin-5(1H)-one]
8.6 | 0.6 | [2H]c1cc(N)nc(F)c1-c1[nH]c([C@@H]2CC[C@@H]3CC(c4c(-n5cnnn5)ccc(Cl)c4F)=CC(=O)N32)nc1[2H] [Example 148, (3S,8aR)-3-[5-(6-amino-4-deuterio-2-fluoro-3-pyridyl)-4-deuterio-1H-imidazol-2-yl]-7-[3-chloro-2-fluoro-6-(tetrazol-1-yl)phenyl]-2,3,8,8a-tetrahydro-1H-indolizin-5-one]
24.5 | 29.1 | NC(=O)c1cc(-c2cnc([C@@H]3CC[C@@H]4CC(c5c(-n6cc(C(F)(F)F)nn6)ccc(Cl)c5F)=CC(=O)N43)[nH]2)ccn1 [Example 204, 4-(2-((3S,8aR)-7-(3-Chloro-2-fluoro-6-(4-(trifluoromethyl)-1H-1,2,3-triazol-1-yl)phenyl)-5-oxo-1,2,3,5,8,8a-hexahydroindolizin-3-yl)-1H-imidazol-5-yl)picolinamide]
